As a reminder, the IC50 is the concentration that inhibits the measured activity by half.

Our source for the IC50 values is US6943183B2 (Pfizer Inc, priority 2000, dated 2005).

For this assay, the target named is T1, SF9 affinity purified rat FPT (Rattus norvegicus, UniProt Q02293+Q04631).
T1 construct: made in house; host or cells: Sf9 insect cells
The assay is described as follows: PFT (FPT) inhibitory activity assay, radiolabeled farnesyl pyrophosphate and biotinyl peptide, streptavidin beads. The class given is biochemical. The note with it: HEPES buffer pH 7.4, 30° C., 30 minutes; read-out: FTase IC50. Summed up:
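Rat FPT expressed in SF9 cells was incubated 30 minutes at 30° C. with compound (in 10% DMSO), radiolabeled farnesyl pyrophosphate and biotinylated peptide. Buffer: HEPES pH 7.4, ZnCl2 20 μM, MgCl2 and DTT 5 mM each, 0.1% PEG 8000, 5 mM potassium phosphate (also run without phosphate). Product captured on streptavidin beads in magnesium acetate/H3PO4 stop buffer.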

In the case of `O=C(NCCO)c1ccc(SCc2c(O[C@H](Cn3ccnc3)c3ccccc3)ccc3c2CCCC3=O)cc1` [Compound 174, N-(2-Hydroxyethyl)-4-{[(2-{[(1S)-2-(1H-imidazol-1-yl)-1-phenylethyl]oxy}-5-oxo-5,6,7,8-tetrahydro-1-naphthalenyl)methyl]sulfanyl}benzamide], the IC50 was 3 nM.
As for `O=C(NCCO)c1ccc(S(=O)(=O)Cc2c(O[C@H](Cn3ccnc3)c3ccccc3)ccc3c2CCCC3=O)cc1` [Compound 175, N-(2-Hydroxyethyl)-4-{[(2-{[(1S)-2-(1H-imidazol-1-yl)-1-phenylethyl]oxy}-5-oxo-5,6,7,8-tetrahydro-1-naphthalenyl)methyl]sulfonyl}benzamide], the figure is 10 nM; as for `O=C(NCCO)c1cccc(S(=O)(=O)Cc2c(O[C@H](Cn3ccnc3)c3ccccc3)ccc3c2CCCC3=O)c1` [Compound 176, N-(2-Hydroxyethyl)-3-{[(2-{[(1S)-2-(1H-imidazol-1-yl)-1-phenylethyl]oxy}-5-oxo-5,6,7,8-tetrahydro-1-naphthalenyl)methyl]sulfonyl}benzamide], 7 nM.
As for `CN(C)CCNC(=O)c1ccc(SCc2c(O[C@H](Cn3ccnc3)c3ccccc3)ccc3c2CCCC3=O)cc1` [Compound 177, N-[2-(Dimethylamino)ethyl]-4-{[(2-{[(1S)-2-(1H-imidazol-1-yl)-1-phenylethyl]oxy}-5-oxo-5,6,7,8-tetrahydro-1-naphthalenyl)methyl]sulfanyl}benzamide], the concentration for half-maximal inhibition (IC50) was 3 nM.
The value for `CN(C)CCNC(=O)c1cccc(SCc2c(O[C@H](Cn3ccnc3)c3ccccc3)ccc3c2CCCC3=O)c1` [Compound 178, N-[2-(Dimethylamino)ethyl]-3-{[(2-{[(1S)-2-(1H-imidazol-1-yl)-1-phenylethyl]oxy}-5-oxo-5,6,7,8-tetrahydro-1-naphthalenyl)methyl]sulfanyl}benzamide] was 8 nM; that for `CN(C)CCNC(=O)c1ccccc1SCc1c(O[C@H](Cn2ccnc2)c2ccccc2)ccc2c1CCCC2=O` [Compound 179, N-[2-(Dimethylamino)ethyl]-2-{[(2-{[(1S)-2-(1H-imidazol-1-yl)-1-phenylethyl]oxy}-5-oxo-5,6,7,8-tetrahydro-1-naphthalenyl)methyl]sulfanyl}benzamide] was 6 nM; that for `CN(C)CCNC(=O)c1ccccc1S(=O)(=O)Cc1c(O[C@H](Cn2ccnc2)c2ccccc2)ccc2c1CCCC2=O` [Compound 180, N-[2-(Dimethylamino)ethyl]-2-{[(2-{[(1S)-2-(1H-imidazol-1-yl)-1-phenylethyl]oxy}-5-oxo-5,6,7,8-tetrahydro-1-naphthalenyl)methyl]sulfonyl}benzamide] was 6 nM.
Regarding `CN(C)CCNC(=O)c1ccc(S(=O)(=O)Cc2c(O[C@H](Cn3ccnc3)c3ccccc3)ccc3c2CCCC3=O)cc1` [Compound 181, N-[2-(Dimethylamino)ethyl]-4-{[(2-{[(1S)-2-(1H-imidazol-1-yl)-1-phenylethyl]oxy}-5-oxo-5,6,7,8-tetrahydro-1-naphthalenyl)methyl]sulfonyl}benzamide], the half-maximal inhibitory concentration (IC50) stood at 20 nM.
Turning to `CN(C)CCNC(=O)c1cccc(S(=O)(=O)Cc2c(O[C@H](Cn3ccnc3)c3ccccc3)ccc3c2CCCC3=O)c1` [Compound 182, N-[2-(Dimethylamino)ethyl]-3-{[(2-{[(1S)-2-(1H-imidazol-1-yl)-1-phenylethyl]oxy}-5-oxo-5,6,7,8-tetrahydro-1-naphthalenyl)methyl]sulfonyl}benzamide], the IC50 came to 10 nM.
The value for `CCOC(=O)CCNC(=O)c1ccccc1S(=O)(=O)Cc1c(O[C@H](Cn2ccnc2)c2ccccc2)ccc2c1CCCC2=O` [Compound 183, Ethyl 3-[(2-{[(2-{[(1S)-2-(1H-Imidazol-1-yl)-1-phenylethyl]oxy}-5-oxo-5,6,7,8-tetrahydro-1-naphthalenyl)methyl]sulfonyl}benzoyl)amino]propanoate] was 7 nM.
The value for `CCOC(=O)C(C)NC(=O)c1ccccc1S(=O)(=O)Cc1c(O[C@H](Cn2ccnc2)c2ccccc2)ccc2c1CCCC2=O` (stereo partly drawn) [Compound 185, Ethyl 2-[(2-{[(2-{[(1S)-2-(1H-Imidazol-1-yl)-1-phenylethyl]oxy}-5-oxo-5,6,7,8-tetrahydro-1-naphthalenyl)methyl]sulfonyl}benzoyl)amino]propanoate] was 4 nM; that for `CCOC(=O)C(C)NC(=O)c1ccccc1SCc1c(O[C@H](Cn2ccnc2)c2ccccc2)ccc2c1CCCC2=O` (stereo partly drawn) [Compound 186, Ethyl 2-[(2-{[(2-{[(1S)-2-(1H-Imidazol-1-yl)-1-phenylethyl]oxy}-5-oxo-5,6,7,8-tetrahydro-1-naphthalenyl)methyl]sulfanyl}benzoyl)amino]propanoate] was 4 nM; that for `CCOC(=O)CCNC(=O)c1ccccc1SCc1c(O[C@H](Cn2ccnc2)c2ccccc2)ccc2c1CCCC2=O` [Compound 187, Ethyl 3-[(2-{[(2-{[(1S)-2-(1H-Imidazol-1-yl)-1-phenylethyl]oxy}-5-oxo-5,6,7,8-tetrahydro-1-naphthalenyl)methyl]sulfanyl}benzoyl)amino]propanoate] was 7 nM.
For `CNC(=O)c1ccc(S(=O)(=O)Cc2c(O[C@H](Cn3ccnc3)c3ccccc3)ccc3c2CCCC3=O)cc1` [Compound 189, 4-{[(2-{[(1S)-2-(1H-2-Imidazol-1-yl)-1-phenylethyl]oxy}-5-oxo-5,6,7,8-tetrahydro-1-naphthalenyl)methyl]sulfonyl}-N-methylbenzamide], the IC50 worked out at 10 nM.
Consider `CNC(=O)c1cccc(S(=O)(=O)Cc2c(O[C@H](Cn3ccnc3)c3ccccc3)ccc3c2CCCC3=O)c1` [Compound 190, 3-{[(2-{[(1S)-2-(1H-imidazol-1-yl)-1-phenylethyl]oxy}-5-oxo-5,6,7,8-tetrahydro-1-naphthalenyl)methyl]sulfonyl}-N-methylbenzamide], for which the IC50 came out at 8 nM.
The value for `CNC(=O)c1ccc(SCc2c(O[C@H](Cn3ccnc3)c3ccccc3)ccc3c2CCCC3=O)cc1` [Compound 191, 4-{[(2-{[(1S)-2-(1H-Imidazol-1-yl)-1-phenylethyl]oxy}-5-oxo-5,6,7,8-tetrahydro-1-naphthalenyl)methyl]sulfanyl}-N-methylbenzamide] was 2 nM; that for `CNC(=O)c1cccc(SCc2c(O[C@H](Cn3ccnc3)c3ccccc3)ccc3c2CCCC3=O)c1` [Compound 192, 3-{[(2-{[(1S)-2-(1H-Imidazol-1-yl)-1-phenylethyl]oxy}-5-oxo-5,6,7,8-tetrahydro-1-naphthalenyl)methyl]sulfanyl}-N-methylbenzamide] was 7 nM; that for `CNC(=O)c1ccccc1SCc1c(O[C@H](Cn2ccnc2)c2ccccc2)ccc2c1CCCC2=O` [Compound 193, 2-{[(2-{[(1S)-2-(1H-Imidazol-1-yl)-1-phenylethyl]oxy}-5-oxo-5,6,7,8-tetrahydro-1-naphthalenyl)methyl]sulfanyl}-N-methylbenzamide] was 5 nM.
As for `C[C@@H](O)CNC(=O)c1ccccc1SCc1c(O[C@H](Cn2ccnc2)c2ccccc2)ccc2c1CCCC2=O` [Compound 194, N-[(2R)-2-Hydroxypropyl]-2-{[(2-{[(1S)-2-(1H-imidazol-1-yl)-1-phenylethyl]oxy}-5-oxo-5,6,7,8-tetrahydro-1-naphthalenyl)methyl]sulfanyl}benzamide], the figure is 0.2 nM; as for `C[C@@H](O)CNC(=O)c1ccc(SCc2c(O[C@H](Cn3ccnc3)c3ccccc3)ccc3c2CCCC3=O)cc1` [Compound 195, N-[(2R)-2-Hydroxypropyl]-4-{[(2-{[(1S)-2-(1H-imidazol-1-yl)-1-phenylethyl]oxy}-5-oxo-5,6,7,8-tetrahydro-1-naphthalenyl)methyl]sulfanyl}benzamide], 0.2 nM.
`C[C@H](O)CNC(=O)c1ccc(SCc2c(O[C@H](Cn3ccnc3)c3ccccc3)ccc3c2CCCC3=O)cc1` [Compound 196, N-[(2S)-2-Hydroxypropyl]-4-{[(2-{[(1S)-2-(1H-imidazol-1-yl)-1-phenylethyl]oxy}-5-oxo-5,6,7,8-tetrahydro-1-naphthalenyl)methyl]sulfanyl}benzamide]: the IC50 was 0.2 nM.
The value for `C[C@H](O)CNC(=O)c1cccc(SCc2c(O[C@H](Cn3ccnc3)c3ccccc3)ccc3c2CCCC3=O)c1` [Compound 197, N-[(2S)-2-Hydroxypropyl]-3-{[(2-{[(1S)-2-(1H-imidazol-1-yl)-1-phenylethyl]oxy}-5-oxo-5,6,7,8-tetrahydro-1-naphthalenyl)methyl]sulfanyl}benzamide] was 0.2 nM; that for `C[C@H](O)CNC(=O)c1ccccc1SCc1c(O[C@H](Cn2ccnc2)c2ccccc2)ccc2c1CCCC2=O` [Compound 198, N-[(2S)-2-Hydroxypropyl]-2-{[(2-{[(1S)-2-(1H-imidazol-1-yl)-1-phenylethyl]oxy}-5-oxo-5,6,7,8-tetrahydro-1-naphthalenyl)methyl]sulfanyl}benzamide] was 0.2 nM; that for `C[C@H](O)CNC(=O)c1ccc(S(=O)(=O)Cc2c(O[C@H](Cn3ccnc3)c3ccccc3)ccc3c2CCCC3=O)cc1` [Compound 199, N-[(2S)-2-Hydroxypropyl]-4-{[(2-{[(1S)-2-(1H-imidazol-1-yl)-1-phenylethyl]oxy}-5-oxo-5,6,7,8-tetrahydro-1-naphthalenyl)methyl]sulfonyl}benzamide] was 0.4 nM.
On to `C[C@H](O)CNC(=O)c1cccc(S(=O)(=O)Cc2c(O[C@H](Cn3ccnc3)c3ccccc3)ccc3c2CCCC3=O)c1` [Compound 200, N-[(2S)-2-Hydroxypropyl]-3-{[(2-{[(1S)-2-(1H-imidazol-1-yl)-1-phenylethyl]oxy}-5-oxo-5,6,7,8-tetrahydro-1-naphthalenyl)methyl]sulfonyl}benzamide], for which the IC50 is 0.24 nM.
As for `C[C@H](O)CNC(=O)c1ccccc1S(=O)(=O)Cc1c(O[C@H](Cn2ccnc2)c2ccccc2)ccc2c1CCCC2=O` [Compound 201, N-[(2S)-2-Hydroxypropyl]-2-{[(2-{[(1S)-2-(1H-imidazol-1-yl)-1-phenylethyl]oxy}-5-oxo-5,6,7,8-tetrahydro-1-naphthalenyl)methyl]sulfonyl}benzamide], the figure is 0.2 nM.
